Results on eight molecules are retold here after patent US8293464B2, “Methods for reducing the internalization of viruses and identification of compounds effective thereof” (Universiteit Gent, priority 2008, dated 2012).

Experiment [1] concerns surface expressed viral antigens in FIPV infected monocytes. In words: Internalization inhibition assay of surface expressed viral antigens (antigen-antibody complexes). In kind it is cell-based, feline. To be noted: each inhibitor at its working concentration; for internalization of viral antigens: 30 min pre-incubation, 30 min with antibodies.
In a further experiment the test system is feline monocytes. Kind of experiment: Internalization assay of control ligands (beads, transferrin or albumin) in monocytes. To be noted: for internalization of a control ligand: control ligand not named. In kind it is cell-based. On the procedure:
To test the effectiveness of all reagents, a suitable control was used in each experiment. Monocytes seeded on glass coverslips were pre-incubated for 30 minutes at 37° C. with 5% CO2 in the presence of one of the inhibitors. After treatment, the cells were incubated with biotinylated transferrin (Sigma-Aldrich GmbH) or fluorescent 1 μm polystyrene microspheres, FluoSpheres (Molecular Probes-Invitrogen), in presence of the inhibitor. Then, cells were fixed with 1% formaldehyde and permeabilized with 0.1% Triton X-100. The biotinylated transferrin was visualized by incubating the cells with streptavidin-FITC for 1 hour at 37° C. and cells incubated with fluorescent beads were incubated with phalloidin-Texas Red (Molecular Probes-Invitrogen) for 1 hour at 37° C. to visualize the lamellipodia. The glass coverslips were mounted on microscope slides using glycerin-DABCO and analyzed by confocal microscopy. […] Fluorescent beads were considered internalized when they were found inside the cortical actin labeling.

The mark [2] stands for this setting: inhibitor at working concentration.

Structures are written as SMILES. Residues, ends and D or L forms follow the SMILES beside them.

Turning to `CC(NC(=O)C(CCCN=C(N)N)NC(=O)C(CCCCN)NC(=O)C(N)CCCN=C(N)N)C(=O)NC(CCCN=C(N)N)C(=O)NC(CCCCN)C(=O)NC(CCC(=O)O)C(=O)O` (stereo not shown) [PKG-inhibitor] (H-RKRARKE-OH; configuration not given here), the “internalization of viral antigens (in words)” value (from here on “internalization … (in words)”) in experiment [1] is on record as “unaffected”. The “internalization of a control ligand” value with feline monocytes (setting [2]) stood at 14±7%.
As to `CN(N=O)c1cc(O)ccc1O` [dephostatin], the “internalization of viral antigens” value in experiment [1] is 96±23 % of untreated control. In addition, the “internalization of the control ligand beads” value in the experiment with feline monocytes (setting [2]) is 2±3 % of untreated control.
For `[F-].[Na+]` [sodium fluoride], in experiment [1], the “internalization … (in words)” value was “no reduction”. Moreover, the “internalization of the control ligand transferrin” value with feline monocytes (setting [2]) is on record as 46±6 % of the untreated control.
`CN(C)CCCn1cc(C2=C(c3c[nH]c4ccccc34)C(=O)NC2=O)c2ccccc21` [bisindolylmaleimide I]: the “internalization … (in words)” value in experiment [1] was “unaffected”. Moreover, the “internalization of a control ligand” value in the experiment with feline monocytes (setting [2]) was 25±13%.
On to `COC(=O)[C@@]1(O)C[C@H]2O[C@]1(C)n1c3ccccc3c3c4c(c5c6ccccc6n2c5c31)C(=O)NC4` [K252a, K-252a], for which, in experiment [1], the “internalization … (in words)” value is recorded as “inhibited”. In the experiment on feline monocytes (150 nM K-252a), the “internalization of the control ligand (beads), in words” value is “inhibited”.
With `O=S(=O)(NCCNC/C=C/c1ccc(Br)cc1)c1cccc2cnccc12` [H-89], the “internalization … (in words)” value in experiment [1] is recorded as “unaffected”. In the experiment on feline monocytes (setting [2]), the “internalization of a control ligand” value was determined as 33±29%.
In the case of `CN[C@@H]1C[C@H]2O[C@@](C)([C@@H]1OC)n1c3ccccc3c3c4c(c5c6ccccc6n2c5c31)C(=O)NC4` [staurosporine], in experiment [1], the “internalization of viral antigens” value is given as 21±2 % of untreated control. Also, in the experiment on feline monocytes (setting [2]), the “internalization of the control ligand beads” value is given as 23±4 % of untreated control.
Turning to `COc1ccc(S(=O)(=O)N(CCO)c2ccccc2CN(C)C/C=C/c2ccc(Cl)cc2)cc1` [KN-93], the “internalization … (in words)” value in experiment [1] is listed as “unaffected”. Also, the “internalization of a control ligand” value in the experiment with feline monocytes (setting [2]) is given as 23±16%.
